Experimental data published in patent US7259174B2, “Imidazolidinone compounds” (National Health Research Institutes, priority 2004, dated 2007).

Columns and labels:
[1] = test system: EV71-4643; assay: plaque reduction assay, EV71-4643; format: cell-based, Enterovirus 71 (EV71); settings: Enterovirus A, vero cells, plaques counted after 96 hours at 35° C.
Excerpt: (§1) Enterovirus 71 (EV71) isolates were obtained from Chang Gung Children's Hospitals (Taipei, Taiwan) and National Cheng Kung University Hospital (Tainan, Taiwan). EV71-2231 and EV71-1743 were isolated from throat swabs. EV71-2086 was isolated from the skin lesion of an implicated HFMD (hand, foot, and mouth disease) patient. EV71-4643 was a clinical isolate obtained from the throat swabs of a patient with encephalitis). BrCr, the prototype of EV71, was obtained from the American Type Culture Collection (ATCC Accession No. VR 784). Vero cells (ATCC Accession No. CCL-81) were used for virus isolation and propagation.
(§2) The antiviral activity of a number of imidazolidinone compounds was determined by a standard plaque reduction assay as described in Otto et al., Antimicrobial Agents & Chemotherapy, 1985, 27:883-886.
(§3) A compound to be tested was serially diluted and included in the agar-medium overlay. Plates were incubated at 35° C. for 96 hours. The plaques were stained with crystal violet and counted.

[2] = test system: EV71-2231; assay: plaque reduction assay, EV71-2231; format: cell-based, Enterovirus 71 (EV71); settings: Enterovirus A, vero cells, plaques counted after 96 hours at 35° C.
Excerpt: as §1, §2, §3

| IC50 [1] [nM] | IC50 [2] [nM] | SMILES |
| --- | --- | --- |
| ≤ 38.1 | ≤ 38.1 | CCO/N=C/c1ccc(OCC[C@H](C)CCN2CCN(c3ccncc3)C2=O)cc1 [Compound 7, 4-[(R)-3-methyl-5-(2-oxo-3-pyridin-4-yl-imidazolidin-1-yl)-pentyloxy]-benzaldehyde O-ethyl-oxime] |
| ≤ 38.1 | ≤ 38.1 | CCO/N=C/c1ccc(OCC[C@@H](C)CCN2CCN(c3ccncc3)C2=O)cc1 [Compound 8, 4-[(S)-3-methyl-5-(2-oxo-3-pyridin-4-yl-imidazolidin-1-yl)-pentyloxy]-benzaldehyde O-ethyl-oxime] |
| ≤ 38.1 | ≤ 38.1 | CCO/N=C/c1ccc(OCCC(C)(C)CCN2CCN(c3ccncc3)C2=O)cc1 [Compound 6, 4-[3,3-dimethyl-5-(2-oxo-3-pyridin-4-yl-imidazolidin-1-yl)-pentyloxy]-benzaldehyde O-ethyl-oxime] |
| ≤ 38.1 | ≤ 38.1 | CCO/N=C/c1ccc(OCCC(C)CCN2CCN(c3ccncc3)C2=O)cc1 (centres unmarked) [Compound 5, 4-[3-methyl-5-(2-oxo-3-pyridin-4-yl-imidazolidin-1-yl)-pentyloxy]-benzaldehyde O-ethyl-oxime] |
